Marks after values point to notes of the source that are not given here.
Key:
[1] = tested on: APEC O78-53; format: cell-based, avian pathogenic Escherichia coli (APEC); settings: APEC O78-53, M63 media; MIC/MBC
[2] = tested on: intracellular APEC O78 in Caco-2 cells; test: Intracellular survival assay (cidal SMs); settings: O78, Caco-2, 6 h treatment; superscript = multiple of MIC
[3] = tested on: APEC O2; format: cell-based, avian pathogenic Escherichia coli (APEC); settings: APEC O2, M63 media; MIC/MBC
[4] = tested on: APEC O78; test: Confocal microscopy bacterial cytological profiling; format: cell-based, avian pathogenic Escherichia coli (APEC); settings: 2X MBC
Procedure: Confocal and scanning electron microscopy. Confocal microscopy was used for bacterial cytological profiling (BCP) to identify the cellular pathways targeted by SMs as described previously. […] After incubation, treated cultures were centrifuged, washed, and resuspended in 100 μL PBS. […] Cultures were then centrifuged, washed, and resuspended in PBS to 1⁄10th volume of the original cultures.

[5] = tested on: intracellular APEC O1 in Caco-2 cells; test: Intracellular survival assay (cidal SMs); settings: O1, Caco-2, 6 h treatment; superscript = multiple of MIC
[6] = tested on: intracellular APEC O78, O2, and O1 in infected Caco-2, HD11, and THP1 cells; test: Intracellular survival assay (cidal SMs), summary over serotypes and cells; settings: overall ranking
[7] = tested on: APEC O1-63; format: cell-based, avian pathogenic Escherichia coli (APEC); settings: APEC O1-63, M63 media; MIC/MBC
[8] = tested on: APEC O109; format: cell-based, avian pathogenic Escherichia coli (APEC); settings: APEC O109, M63 media; MIC/MBC
[9] = tested on: intracellular APEC O2 in Caco-2 cells; test: Intracellular survival assay (cidal SMs); settings: O2, Caco-2, 6 h treatment; superscript = multiple of MIC
[10] = tested on: intracellular APEC O1 in HD11 cells; test: Intracellular survival assay (cidal SMs); settings: O1, HD11, 6 h treatment; superscript = multiple of MIC
[11] = tested on: APEC O8; format: cell-based, avian pathogenic Escherichia coli (APEC); settings: APEC O8, M63 media; MIC/MBC
[12] = tested on: intracellular APEC O2 in HD11 cells; test: Intracellular survival assay (cidal SMs); settings: O2, HD11, 6 h treatment; superscript = multiple of MIC
[13] = tested on: APEC O78; format: cell-based, avian pathogenic Escherichia coli (APEC); settings: APEC O78, M63 media; cell prints MIC/MBC
[14] = tested on: APEC O115; format: cell-based, avian pathogenic Escherichia coli (APEC); settings: APEC O115, M63 media; MIC/MBC
[15] = tested on: APEC O35; format: cell-based, avian pathogenic Escherichia coli (APEC); settings: APEC O35, M63 media; MIC/MBC
[16] = tested on: intracellular APEC O78 in HD11 cells; test: Intracellular survival assay (cidal SMs); settings: O78, HD11, 6 h treatment; superscript = multiple of MIC
[17] = tested on: intracellular APEC O78 in THP-1 cells; test: Intracellular survival assay (cidal SMs); settings: O78, THP-1, 6 h treatment; superscript = multiple of MIC
[18] = tested on: biofilm embedded APEC O78; test: MBEC High-throughput assay; format: cell-based, avian pathogenic Escherichia coli (APEC); settings: biofilm embedded APEC O78; superscript = multiple of MIC (footnote)
Procedure: Effect against biofilm embedded APEC. The effect of cidal SMs against biofilm embedded APEC was determined using MBEC High-throughput (HTP) assay (Innovotech Inc., AB, Canada). Briefly, 150 µL of 0.05 OD600 adjusted APEC O78 culture was aliquoted into each well of the MBEC device containing polystyrene pegs and incubated at 37° C. for 36 h in LB media under stationary condition. […] The plate was incubated in the dark for 18 h at 37° C. with rotation at 110 rpm. The DMSO (1%) and M63 media were used as positive and negative controls, respectively. Following incubation, MIC of SMs in challenged plate was recorded. The SMs exposed pegs were then transferred to a new 96-well plate containing PBS and sonicated for 30 mins (Aquasonic ultrasonic cleaner, VWR) to disrupt the biofilm. […] Biofilm embedded APEC bacteria were enumerated and minimum biofilm eradication concentration (MBEC) of […] were determined. Two independent experiments were conducted.

[19] = tested on: intracellular APEC O1 in THP-1 cells; test: Intracellular survival assay (cidal SMs); settings: O1, THP-1, 6 h treatment; superscript = multiple of MIC
[20] = tested on: intracellular APEC O2 in THP-1 cells; test: Intracellular survival assay (cidal SMs); settings: O2, THP-1, 6 h treatment; superscript = multiple of MIC
[21] = tested on: APEC O1; format: cell-based, avian pathogenic Escherichia coli (APEC); settings: APEC O1, M63 media; MIC/MBC
[22] = tested on: APEC O78; test: Loss of 260/280 nm absorbing materials assay; format: cell-based, avian pathogenic Escherichia coli (APEC); settings: 2X MBC, 1 h, *P<0.05 vs DMSO
[23] = tested on: APEC O18; format: cell-based, avian pathogenic Escherichia coli (APEC); settings: APEC O18, M63 media; MIC/MBC
[24] = tested on: APEC O2-211; format: cell-based, avian pathogenic Escherichia coli (APEC); settings: APEC O2-211, M63 media; MIC/MBC
[25] = tested on: APEC O15; format: cell-based, avian pathogenic Escherichia coli (APEC); settings: APEC O15, M63 media; MIC/MBC

Compound: CC1CCC(C(C)C)C(OC(=O)Cn2c[n+](CC(=O)OC3CC(C)CCC3C(C)C)c3ccccc32)C1.[Cl-] (centres unmarked) [SM4]
- MBC [1]: 50 µM
- MIC [1]: 25 µM
- SMs intracellular APEC clearance concentration [2]: 50^b µM
- MBC [3]: 50 µM
- MIC [3]: 25 µM
- cytological profile (confocal, FM4-64 / SYTO-9) [4]: membrane disruptors
- SMs intracellular APEC clearance concentration [5]: 100^c µM
- effectiveness in clearing intracellular APEC serotypes in all tested cells [6]: most effective
- MBC [7]: 50 µM
- MIC [7]: 25 µM
- MBC [8]: 25 µM
- MIC [8]: 25 µM
- SMs intracellular APEC clearance concentration [9]: 100^c µM
- SMs intracellular APEC clearance concentration [10]: 50^b µM
- MBC [11]: 25 µM
- MIC [11]: 25 µM
- SMs intracellular APEC clearance concentration [12]: 50^b µM
- MBC [13]: 50 µM
- MIC [13]: 25 µM
- MBC [14]: 25 µM
- MIC [14]: 25 µM
- MBC [15]: 25 µM
- MIC [15]: 25 µM
- SMs intracellular APEC clearance concentration [16]: 50^b µM
- SMs intracellular APEC clearance concentration [17]: 56^b µM
- MBEC [18]: 25^a µM
- SMs intracellular APEC clearance concentration [19]: >100 µM
- SMs intracellular APEC clearance concentration [20]: 100^c µM
- MBC [21]: 50 µM
- MIC [21]: 25 µM
- Absorbance 260 ([22]; 260 nm absorbing material in supernatant): 3.91*
- Absorbance 280 ([22]; 280 nm absorbing material in supernatant): 2.69*
- MBC [23]: 50 µM
- MIC [23]: 25 µM
- MBC [24]: 25 µM
- MIC [24]: 25 µM
- MBC [25]: 25 µM
- MIC [25]: 25 µM
